In ChEMBL document CHEMBL4257529, “Antifungal amphiphilic kanamycins: new life for an old drug” (Medchemcomm, 2018):
Values after ≈ are worked out from the molar mass of the structure shown.

Columns and labels:
Type in all cases: functional
Fusarium graminearum [1] = experiment: Antifungal activity against Fusarium graminearum after 12 to 18 hrs
Aspergillus flavus [2] = experiment: Antifungal activity against Aspergillus flavus after 12 to 18 hrs
Escherichia coli [3] = experiment: Antibacterial activity against Escherichia coli ATCC 25922 after 12 to 18 hrs
Staphylococcus aureus [4] = experiment: Antibacterial activity against Staphylococcus aureus ATCC 25923 after 12 to 18 hrs
Fusarium graminearum [5] = experiment: Antifungal activity against Fusarium graminearum infected in wheat plant assessed as contamination of wheat heads and kernels with deoxynivalenol at 4 ml/L (reference value: 1.2 ppm)
Fusarium graminearum [6] = experiment: Antifungal activity against Fusarium graminearum infected in wheat plant assessed as contamination of wheat heads and kernels with deoxynivalenol at 8 ml/L (reference value: 1.2 ppm)
Candida parapsilosis [7] = experiment: Antifungal activity against resistant Candida parapsilosis; details: Lodderomyces parapsilosis
Candida albicans [8] = experiment: Antifungal activity against resistant Candida albicans ATCC 64124
Aspergillus flavus [9] = experiment: Antifungal activity against Aspergillus flavus
Candida albicans [10] = experiment: Antifungal activity against sensitive Candida albicans MYA-2876
Kluyveromyces marxianus = experiment: Antifungal activity against Candida pseudotropicalis YOGI
Cryptococcus neoformans [11] = experiment: Antifungal activity against Cryptococcus neoformans 90-26
Clavispora lusitaniae = experiment: Antifungal activity against Candida lusitaniae 95-767
Candida albicans [12] = experiment: Antifungal activity against Candida albicans ATCC 10231
Diutina rugosa = experiment: Antifungal activity against Candida rugosa 95-967
Cryptococcus neoformans [13] = experiment: Antifungal activity against Cryptococcus neoformans 94-2586
Candida albicans [14] = experiment: Antifungal activity against Candida albicans 94-2181
Candida albicans [15] = experiment: Antifungal activity against Candida albicans B-311
Cryptococcus neoformans [16] = experiment: Antifungal activity against Cryptococcus neoformans H99; details: var grubii H99
Candida tropicalis = experiment: Antifungal activity against Candida tropicalis 95-41
Candida parapsilosis [17] = experiment: Antifungal activity against sensitive Candida parapsilosis; details: Lodderomyces parapsilosis
Fusarium graminearum [18] = experiment: Antifungal activity against Fusarium graminearum B4-5A strain E after 48 hrs by microdilution assay
Fusarium graminearum [19] = experiment: Antifungal activity against Fusarium graminearum B4-5A strain C after 48 hrs by microdilution assay
Fusarium graminearum [20] = experiment: Antifungal activity against Fusarium graminearum B4-5A strain D after 48 hrs by microdilution assay
Fusarium graminearum [21] = experiment: Antifungal activity against Fusarium graminearum B4-5A strain B after 48 hrs by microdilution assay
Fusarium graminearum [22] = experiment: Antifungal activity against Fusarium graminearum B4-5A strain A after 48 hrs by microdilution assay
Fusarium graminearum [23] = experiment: Antifungal activity against Fusarium graminearum by microbroth dilution assay
Micrococcus luteus = experiment: Antibacterial activity against Micrococcus luteus ATCC 10240
Escherichia coli [24] = experiment: Antibacterial activity against Escherichia coli TG1
Aspergillus niger = experiment: Antifungal activity against Aspergillus niger
Staphylococcus aureus [25] = experiment: Antibacterial activity against Staphylococcus aureus ATCC 25923
Fusarium oxysporum = experiment: Antifungal activity against Fusarium oxysporum
Fusarium graminearum [26] = experiment: Antifungal activity against Fusarium graminearum B-4-5A

## CCCCO[C@H]1[C@H](N)[C@@H](O)[C@@H](O[C@@H]2[C@@H](O)[C@H](O[C@H]3O[C@H](CN)[C@@H](O)[C@H](O)[C@H]3O)[C@@H](N)C[C@H]2N)O[C@@H]1CO
Fusarium graminearum [1]
  MIC: ≥ 500 µg/mL
Aspergillus flavus [2]
  MIC: > 500 µg/mL
Escherichia coli [3]
  MIC: ≥ 250 µg/mL
Staphylococcus aureus [4]
  MIC: 125 µg/mL (≈ 231 µM)

## COC(=O)N(OC)c1ccccc1COc1ccn(-c2ccc(Cl)cc2)n1 [PYRACLOSTROBIN]
Fusarium graminearum [5]
  Activity: 1.3 ppm
Fusarium graminearum [6]
  Activity: 1.2 ppm

## CCCCCCOC[C@H]1O[C@H](O[C@@H]2[C@@H](O)[C@H](O[C@H]3O[C@H](CN)[C@@H](O)[C@H](O)[C@H]3O)[C@@H](N)C[C@H]2N)[C@H](O)[C@@H](N)[C@@H]1OCCCCCC
Fusarium graminearum [1]
  MIC: 15.6 µg/mL (≈ 23.9 µM)
Aspergillus flavus [2]
  MIC: 500 µg/mL (≈ 766 µM)
Escherichia coli [3]
  MIC: ≥ 250 µg/mL
Staphylococcus aureus [4]
  MIC: 64 µg/mL (≈ 98 µM)

## CCCCCCO[C@H]1[C@H](N)[C@@H](O)[C@@H](O[C@@H]2[C@@H](O)[C@H](O[C@H]3O[C@H](CN)[C@@H](O)[C@H](O)[C@H]3O)[C@@H](N)C[C@H]2N)O[C@@H]1CO
Fusarium graminearum [1]
  MIC: 31.3 µg/mL (≈ 55 µM)
Aspergillus flavus [2]
  MIC: > 500 µg/mL
Escherichia coli [3]
  MIC: ≥ 250 µg/mL
Staphylococcus aureus [4]
  MIC: 64 µg/mL (≈ 113 µM)

## CCC(C)n1ncn(-c2ccc(N3CCN(c4ccc(OCC5COC(Cn6cncn6)(c6ccc(Cl)cc6Cl)O5)cc4)CC3)cc2)c1=O (configuration not stated) [ITRACONAZOLE]
Candida parapsilosis [7]
  MIC: 0.5 µg/mL (≈ 0.709 µM)
Candida albicans [8]
  MIC: > 64 µg/mL
Aspergillus flavus [9]
  MIC: 0.125 µg/mL (≈ 0.177 µM)
Candida albicans [10]
  MIC: > 2 µg/mL
Kluyveromyces marxianus
  MIC: 0.125 to 0.8 µg/mL (≈ 0.177 to 1.13 µM)
Cryptococcus neoformans [11]
  MIC: 0.37 µg/mL (≈ 0.524 µM)
Clavispora lusitaniae
  MIC: 0.2 µg/mL (≈ 0.283 µM)
Candida albicans [12]
  MIC: 0.75 µg/mL (≈ 1.06 µM)
Diutina rugosa
  MIC: 0.12 µg/mL (≈ 0.17 µM)
Cryptococcus neoformans [13]
  MIC: 0.06 µg/mL (≈ 0.085 µM)
Candida albicans [14]
  MIC: 8 to 16 µg/mL (≈ 11.3 to 22.7 µM)
Candida albicans [15]
  MIC: 16 to 32 µg/mL (≈ 22.7 to 45.3 µM)
Cryptococcus neoformans [16]
  MIC: 1.56 µg/mL (≈ 2.21 µM)
Candida tropicalis
  MIC: > 25 µg/mL
Candida parapsilosis [17]
  MIC: 0.015 µg/mL (≈ 0.0213 µM)

## OC(Cn1cncn1)(Cn1cncn1)c1ccc(F)cc1F [FLUCONAZOLE]
Candida parapsilosis [7]
  MIC: > 16 µg/mL
Fusarium graminearum [18]
  MIC: > 25 µg/mL
Candida albicans [8]
  MIC: > 200 µg/mL
Fusarium graminearum [19]
  MIC: > 2 µg/mL
Candida albicans [10]
  MIC: 1.56 µg/mL (≈ 5.09 µM)
Fusarium graminearum [20]
  MIC: > 12.5 µg/mL
Fusarium graminearum [21]
  MIC: > 25 µg/mL
Cryptococcus neoformans [11]
  MIC: > 0.195 µg/mL
Clavispora lusitaniae
  MIC: 1.56 µg/mL (≈ 5.09 µM)
Candida albicans [12]
  MIC: 25 µg/mL (≈ 81.6 µM)
Diutina rugosa
  MIC: > 0.78 µg/mL
Cryptococcus neoformans [13]
  MIC: 1.56 µg/mL (≈ 5.09 µM)
Candida albicans [14]
  MIC: > 12.5 µg/mL
Candida albicans [15]
  MIC: > 25 µg/mL
Cryptococcus neoformans [16]
  MIC: 1.56 µg/mL (≈ 5.09 µM)
Candida tropicalis
  MIC: > 25 µg/mL
Candida parapsilosis [17]
  MIC: 0.12 µg/mL (≈ 0.392 µM)
Fusarium graminearum [22]
  MIC: > 200 µg/mL

## CCCCCCCCO[C@H]1[C@H](O)[C@@H](N)[C@@H](O[C@H]2[C@H](O)[C@@H](O[C@H]3O[C@H](CO)[C@@H](O)[C@H](O)[C@H]3O)[C@H](N)C[C@@H]2N)O[C@@H]1CN
Fusarium graminearum [23]
  MIC: > 500 µg/mL

## CCCCCCCCOC[C@H]1O[C@H](O[C@@H]2[C@@H](O)[C@H](O[C@H]3O[C@H](CN)[C@@H](O)[C@H](O)[C@H]3O)[C@@H](N)C[C@H]2N)[C@H](O)[C@@H](N)[C@@H]1OCCCCCCCC
Fusarium graminearum [1]
  MIC: 31.3 µg/mL (≈ 44.2 µM)
Aspergillus flavus [2]
  MIC: > 500 µg/mL
Escherichia coli [3]
  MIC: ≥ 250 µg/mL
Staphylococcus aureus [4]
  MIC: ≥ 250 µg/mL

## CCCCCCCCO[C@@H]1[C@@H](O)[C@@H](O[C@@H]2[C@@H](O)[C@H](O[C@H]3O[C@H](CN)[C@@H](O)[C@H](O)[C@H]3N)[C@@H](N)C[C@H]2N)O[C@H](CO)[C@H]1O
Fusarium graminearum [23]
  MIC: 62.5 µg/mL (≈ 105 µM)

## CCCCCCCO[C@H]1[C@H](N)[C@@H](O)[C@@H](O[C@@H]2[C@@H](O)[C@H](O[C@H]3O[C@H](CN)[C@@H](O)[C@H](O)[C@H]3O)[C@@H](N)C[C@H]2N)O[C@@H]1CO
Fusarium graminearum [1]
  MIC: 125 µg/mL (≈ 215 µM)
Aspergillus flavus [2]
  MIC: > 500 µg/mL
Escherichia coli [3]
  MIC: ≥ 250 µg/mL
Staphylococcus aureus [4]
  MIC: 125 µg/mL (≈ 215 µM)

## NC[C@H]1O[C@H](O[C@H]2[C@H](O)[C@@H](O[C@H]3O[C@H](CO)[C@@H](O)[C@H](N)[C@H]3O)[C@H](N)C[C@@H]2N)[C@H](O)[C@@H](O)[C@@H]1O [KANAMYCIN]
Micrococcus luteus
  MIC: 1.95 µg/mL (≈ 4.02 µM)
Escherichia coli [24]
  MIC: 1.95 µg/mL (≈ 4.02 µM)
Candida albicans [8]
  MIC: > 500 µg/mL
Aspergillus flavus [9]
  MIC: > 250 µg/mL
Aspergillus niger
  MIC: > 250 µg/mL
Candida albicans [10]
  MIC: > 250 µg/mL
Staphylococcus aureus [25]
  MIC: < 0.98 µg/mL
Kluyveromyces marxianus
  MIC: > 250 µg/mL
Cryptococcus neoformans [11]
  MIC: > 250 µg/mL
Fusarium oxysporum
  MIC: > 250 µg/mL
Clavispora lusitaniae
  MIC: > 250 µg/mL
Candida albicans [12]
  MIC: > 250 µg/mL
Diutina rugosa
  MIC: > 250 µg/mL
Cryptococcus neoformans [13]
  MIC: > 125 µg/mL
Candida albicans [14]
  MIC: > 250 µg/mL
Candida albicans [15]
  MIC: > 250 µg/mL
Cryptococcus neoformans [16]
  MIC: > 125 µg/mL
Candida tropicalis
  MIC: > 250 µg/mL
Candida parapsilosis [17]
  MIC: > 250 µg/mL
Fusarium graminearum [26]
  MIC: > 125 µg/mL
